The experiment is described as follows: Analysis Method 8: ultraviolet ray transmittance on surgical tape. To be noted: wave-length of 310 nm; applied amounts differ per sample. As for the experimental part: A measuring sample was applied on a surgical tape (TRANSPORE TAPE, manufactured by 3M Corp.), this was irradiated with a ultraviolet ray, and the amount of the transmitted light was measured by a SPF analyzer, (UV-1000S, manufactured by LABSPHERE Corp., US). The numerical value in the examples is an average of 40 values. The amount of the sample applied on a surgical tape is 2 μl/cm^2 and a certain amount when measuring SPF value and ultraviolet ray transmittance, respectively.

Ultraviolet ray transmittance data for one molecule are collected here from patent US6337089B1, “Microcapsule containing core material and method for producing the same” (Seiwa Kasei Company, Limited, priority 1998, dated 2002).

`CCCCC(CC)COC(=O)C=Cc1ccc(OC)cc1` (stereo not shown) [2-ethylhexyl p-methoxy-cinnamate, 2-ethylhexyl p-methoxycinnamate] showed a Ultraviolet ray transmittance of 2.2.
